Consider 1 molecule from PMC2567432 (PLoS ONE, 2008).

Data set [1] deals with breast cancer MDA-MB-231 cells. The data set is described as follows: Cell proliferation WST-1 assay, MDA-MB-231. Conditions: MDA-MB-231, 24 h. Type of data set: cell-based, human. On the procedure: Figure 3 Growth inhibition of different tumor cell lines by polyphenols. […] Following 24-h incubation, cell proliferation was evaluated using the WST-1 assay.
Tumor cells were cultured in RPMI medium containing 10% fetal calf serum (RPMI-FCS) (PC-3, JIMT-1, MDA-MD 231) or in DMEM-FCS (astrocytoma 1321N1 cells) containing penicillin/streptomycin (100 U penicillin/ml; 100 µg streptomycin/ml) at 37°C/5% CO2. Cytosolic protein extracts of tumor cells were prepared using extraction buffer composed of 25 mM Tris, 2 mM EDTA, 10% Glycerol, 1% Triton ×100, 2 mM DTT, 1mM PMSF, pH. 7.0 containing 0.3% protease inhibitor cocktail. Protein content was determined according to Bradford. Specific activity of enzymes analyzed in cell extracts was expressed as U/mg protein.
Cell proliferation/vitality of tumor cells (96-well plates; 5000 cells/well) and primary human hepatocytes (24-well plates; 0.25×10^6 cells/well) was assayed using the WST-1 assay according to manufacturer's instructions. Trypan blue exclusion was performed by staining cells with 0.4% aqueous trypan blue solution according to the manufacturer's instructions.
A general note: Tetrazolium dyes change colour on reduction, which living cells bring about.

A further data set concerns 1321N1 cells. Nature of the data set: L-LDH release into cell supernatants. The conditions noted are these: 50 µM. The class given is cell-based. As to the method: Tumor cells were cultured and treated as mentioned in Fig. 3. (A) LDH activity was measured in cell supernatants. (B) Cell vitality as assayed by the trypan blue exclusion test. Data represent the mean±S.D. of independent experiments (n = 6).
LDH activity was spectrophotometrically assayed in the cytosolic extract or in the of cell cultures by adding aliquots to 1 ml reaction buffer (50 mM Na2HPO4, pH 7.0, 0.15 mM NADH, and 0.3 mM pyruvate). Enzyme activity was recorded at 340 nm.
A general note: LDH in the medium is a marker of cell lysis.

Turning to `COc1cc(C=CC(=O)CC(=O)C=Cc2ccc(O)c(OC)c2)ccc1O` [curcumin, 1,7-bis(4-hydroxy-3-methoxyphenyl)-1,6-heptadiene-3,5-dione], the “concentration giving strong anti-proliferative effects” value in data set [1] is “above 50 µM”. Moreover, in the data set with 1321N1 cells (6-h incubation), the L-LDH release entry is “not significantly increased”. In the data set with 1321N1 cells (24-h incubation), the LDH release result is “increased”.
